Experimental data taken from US7741327B2 (Hoffmann-La Roche Inc., priority 2008, dated 2010).

Molecular target: T1, Recombinant human liver GK1 (GST-GK) (Homo sapiens, UniProt P35557)
T1 construct: made in house; host or cells: E. coli
T1 sequence (P35557 1-466 isoform P35557-2): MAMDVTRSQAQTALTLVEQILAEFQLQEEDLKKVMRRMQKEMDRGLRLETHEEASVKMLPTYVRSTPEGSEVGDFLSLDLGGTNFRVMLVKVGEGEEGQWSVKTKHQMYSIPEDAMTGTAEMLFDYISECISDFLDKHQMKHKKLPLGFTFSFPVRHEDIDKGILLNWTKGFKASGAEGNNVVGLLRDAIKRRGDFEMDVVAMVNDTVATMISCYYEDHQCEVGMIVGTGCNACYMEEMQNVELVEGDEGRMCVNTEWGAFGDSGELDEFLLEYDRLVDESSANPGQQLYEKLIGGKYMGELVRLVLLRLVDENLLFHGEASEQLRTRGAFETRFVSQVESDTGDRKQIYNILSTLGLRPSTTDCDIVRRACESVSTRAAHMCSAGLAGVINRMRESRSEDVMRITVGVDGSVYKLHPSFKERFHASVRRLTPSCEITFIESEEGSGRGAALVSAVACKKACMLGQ
Test: In vitro glucokinase activity (G6PDH-coupled NADH assay)
Assay type: biochemical
Conditions: 30° C., 5 mM D-glucose, 10% DMSO
Summary of the method: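 Activation measured as the rate of OD340 rise from G6PDH-coupled NADH production, relative to 10% DMSO control, reported as SC1.5 (concentration for 50% activity increase). Conditions: 30° C, pH 7.1 Hepes, 5 mM glucose, 1 mM ATP, purified recombinant GST-human GK1, compound preincubated 10 min before enzyme addition.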

Row | SC1.5 (concentration of activator that produced a 50% increase in the activity of GK) | SMILES
1 | 0.018 µM | Cc1cccc(OC2=CC(=O)N([C@@H](CC3CCCCC3)C(=O)Nc3ccn(CC(C)(C)O)n3)C2)c1 [Example 210, (S)-3-cyclohexyl-N-[1-(2-hydroxy-2-methyl-propyl)-1H-pyrazol-3-yl]-2-(2-oxo-4-m-tolyloxy-2,5-dihydro-pyrrol-1-yl)-propionamide]
2 | 5.251 µM | CCCOC1=CC(=O)N([C@@H](CC2CCCCC2)C(=O)Nc2ccn(CC(C)(C)O)n2)C1 [Example 24, (S)-3-Cyclohexyl-N-[1-(2-hydroxy-2-methyl-propyl)-1H-pyrazol-3-yl]-2-(2-oxo-4-propoxy-2,5-dihydro-pyrrol-1-yl)-propionamide]
3 | 2.59 µM | CC(C)C[C@@H](C(=O)Nc1cnccn1)N1CC(Oc2cccc(C(C)(C)O)c2F)=CC1=O [Example 247, (S)-2-{4-[2-Fluoro-3-(1-hydroxy-1-methyl-ethyl)-phenoxy]-2-oxo-2,5-dihydro-pyrrol-1-yl}-4-methyl-pentanoic acid pyrazin-2-ylamide]
4 | 0.05 µM | O=C(Nc1ccn(C[C@@H](O)CO)n1)[C@H](CC1CCC1)N1CC(Oc2ccccc2Cl)=CC1=O [Example 176, (S)-2-[4-(2-chloro-phenoxy)-2-oxo-2,5-dihydro-pyrrol-1-yl]-3-cyclobutyl-N-[1-((R)-2,3-dihydroxy-propyl)-1H-pyrazol-3-yl]-propionamide]
5 | 0.771 µM | O=C(Nc1ccn(C[C@@H](O)CO)n1)[C@H](Cc1ccc(F)cc1)N1CC(Oc2ccccc2Cl)=CC1=O [Example 187, (S)-2-[4-(2-chloro-phenoxy)-2-oxo-2,5-dihydro-pyrrol-1-yl]-N-[1-((R)-2,3-dihydroxy-propyl)-1H-pyrazol-3-yl]-3-(4-fluorophenyl)-propionamide]
6 | 0.018 µM | CC(C)(O)Cn1ccc(NC(=O)[C@H](CC2CCCCC2)N2CC(Oc3cccc(Cl)c3)=CC2=O)n1 [Example 207, (S)-2-[4-(3-chloro-phenoxy)-2-oxo-2,5-dihydro-pyrrol-1-yl]-3-cyclohexyl-N-[1-(2-hydroxy-2-methyl-propyl)-1H-pyrazol-3-yl]-propionamide]
7 | 0.072 µM | Cc1ccc(F)c(OC2=CC(=O)N([C@@H](CC(C)C)C(=O)Nc3ccn(C[C@@H](O)CO)n3)C2)c1 [Example 103, (S)-2-[4-(2-Fluoro-5-methyl-phenoxy)-2-oxo-2,5-dihydro-pyrrol-1-yl]-4-methyl-pentanoic acid [1-((R)-2,3-dihydroxy-propyl)-1H-pyrazol-3-yl]-amide]
8 | 1.737 µM | CC(=O)Cc1nsc(NC(=O)[C@H](CC(C)C)N2CC(Oc3ccccc3Cl)=CC2=O)n1 [Example 113, (S)-2-[4-(2-Chloro-phenoxy)-2-oxo-2,5-dihydro-pyrrol-1-yl]-4-methyl-pentanoic acid [3-(2-oxo-propyl)-[1,2,4]thiadiazol-5-yl]-amide]
9 | 0.055 µM | CC(C)(O)Cn1ccc(NC(=O)[C@H](CC2CCCCC2)N2CC(Oc3cccc(OC(F)(F)F)c3)=CC2=O)n1 [Example 211, (S)-3-cyclohexyl-N-[1-(2-hydroxy-2-methyl-propyl)-1H-pyrazol-3-yl]-2-[2-oxo-4-(3-trifluoromethoxy-phenoxy)-2,5-dihydro-pyrrol-1-yl]-propionamide]
10 | 16.154 µM | CC[C@@H](C)C[C@H](C(=O)Nc1ccn(C[C@@H](O)CO)n1)N1CC(Oc2ccccc2Cl)=CC1=O (single isomer, unassigned) [Example 254]
11 | 0.56 µM | Cc1ccccc1OC1=CC(=O)N([C@@H](CC(C)C)C(=O)Nc2ccn(CCO)n2)C1 [Example 122, (S)-4-Methyl-2-(2-oxo-4-o-tolyloxy-2,5-dihydro-pyrrol-1-yl)-pentanoic acid [1-(2-hydroxy-ethyl)-1H-pyrazol-3-yl]-amide]
12 | 0.207 µM | CCOc1ccc(F)c(OC2=CC(=O)N([C@@H](CC(C)C)C(=O)Nc3cnc([C@H](O)CO)cn3)C2)c1F [Example 153, (S)-2-[4-(3-Ethoxy-2,6-difluoro-phenoxy)-2-oxo-2,5-dihydro-pyrrol-1-yl]-4-methyl-pentanoic acid [5-((S)-1,2-dihydroxy-ethyl)-pyrazin-2-yl]-amide]
13 | 3.575 µM | COc1cccc(OC2=CC(=O)N(C(CC(C)(C)F)C(=O)Nc3ccn(C[C@@H](O)CO)n3)C2)c1Cl (stereo partly drawn) [Example 170, 2-[4-(2-Chloro-3-methoxyphenoxy)-2-oxo-2,5-dihydro-pyrrol-1-yl]-4-fluoro-4-methyl-pentanoic acid-[1-((R)-2,3-dihydroxy-propyl)-1H-pyrazol-3-yl]-amide]
14 | 5.931 µM | CC(C)(O)Cn1ccc(NC(=O)[C@H](CC2CCCCC2)N2CC(Nc3ccc(Cl)c(Cl)c3)=CC2=O)n1 [Example 231, (S)-3-Cyclohexyl-2-[4-(3,4-dichloro-phenylamino)-2-oxo-2,5-dihydro-pyrrol-1-yl]-N-[1-(2-hydroxy-2-methyl-propyl)-1H-pyrazol-3-yl]-propionamide]
15 | 6.139 µM | COCC[C@@H](C(=O)Nc1ccn(C[C@@H](O)CO)n1)N1CC(Oc2ccccc2Cl)=CC1=O [Example 230, (S)-2-[4-(2-Chloro-phenoxy)-2-oxo-2,5-dihydro-pyrrol-1-yl]-N-[1-((R)-2,3-dihydroxy-propyl)-1H-pyrazol-3-yl]-4-methoxy-butyramide]
16 | 2.231 µM | COc1ccccc1OC1=CC(=O)N([C@@H](CC2CCCO2)C(=O)Nc2ccn(CC(C)(C)O)n2)C1 (stereo partly drawn) [Example 178, (S)-N-[1-(2-hydroxy-2-methyl-propyl)-1H-pyrazol-3-yl]-2-[4-(2-methoxy-phenoxy)-2-oxo-2,5-dihydro-pyrrol-1-yl]-3-(tetrahydro-furan-2-yl)-propionamide]
17 | 0.063 µM | CCOc1cccc(OC2=CC(=O)N([C@@H](CC(C)C)C(=O)Nc3cnc([C@H](O)CO)cn3)C2)c1F [Example 151, (S)-2-[4-(3-Ethoxy-2-fluoro-phenoxy)-2-oxo-2,5-dihydro-pyrrol-1-yl]-4-methyl-pentanoic acid [5-((S)-1,2-dihydroxy-ethyl)-pyrazin-2-yl]-amide]
18 | 0.26 µM | CC(C)C[C@@H](C(=O)Nc1ccn(C[C@@H](O)CO)n1)N1CC(Oc2ccccc2Br)=CC1=O [Example 137, (S)-2-[4-(2-Bromo-phenoxy)-2-oxo-2,5-dihydro-pyrrol-1-yl]-4-methyl-pentanoic acid [1-((R)-2,3-dihydroxy-propyl)-1H-pyrazol-3-yl]-amide]
19 | 0.437 µM | CC(C)C[C@@H](C(=O)Nc1ccn(C[C@@H](O)CO)n1)N1CC(Oc2ccc3c(c2)OCCO3)=CC1=O [Example 168, (S)-2-[4-(2,3-dihydro-benzo[1,4]dioxin-6-yloxy)-2-oxo-2,5-dihydro-pyrrol-1-yl]-4-methyl-pentanoic acid [1-((R)-2,3-dihydroxy-propyl)-1H-pyrazol-3-yl]-amide]
20 | 0.117 µM | Cc1cccc(OC2=CC(=O)N([C@@H](CC(C)C)C(=O)Nc3ccn(C[C@@H](O)CO)n3)C2)c1F [Example 131, (S)-2-[4-(2-Fluoro-3-methyl-phenoxy)-2-oxo-2,5-dihydro-pyrrol-1-yl]-4-methyl-pentanoic acid [1-((R)-2,3-dihydroxy-propyl)-1H-pyrazol-3-yl]-amide]
21 | 0.043 µM | CC(C)(O)Cn1ccc(NC(=O)C(C[C@H]2C[C@H](C)C2)N2CC(Oc3ccccc3Cl)=CC2=O)n1 (stereo partly drawn) [Example 214, 2-[4-(2-Chloro-phenoxy)-2-oxo-2,5-dihydro-pyrrol-1-yl]-N-[1-(2-hydroxy-2-methyl-propyl)-1H-pyrazol-3-yl]-3-(trans-3-methyl-cyclobutyl)-propionamide]
22 | 0.617 µM | CC1(C)OC[C@@H](Cn2ccc(NC(=O)[C@H](Cc3c(F)cccc3F)N3CC(Oc4ccccc4Cl)=CC3=O)n2)O1 [Example 184, (S)-2-[4-(2-chloro-phenoxy)-2-oxo-2,5-dihydro-pyrrol-1-yl]-N-[1-((R)-2,2-dimethyl-[1,3]dioxolan-4-yl-methyl)-1H-pyrazol-3-yl]-3-(2,6-difluoro-phenyl)-propionamide]
23 | 0.304 µM | CC[C@H](C)CC(C(=O)Nc1ccn(C[C@@H]2COC(C)(C)O2)n1)N1CC(Oc2ccccc2Cl)=CC1=O (mixture of isomers) [Example 248, (S)-2-[4-(2-Chloro-phenoxy)-2-oxo-2,5-dihydro-pyrrol-1-yl]-4-methyl-hexanoic acid [1-((R)-2,2-dimethyl-[1,3]dioxolan-4-ylmethyl)-1H-pyrazol-3-yl]-amide]
